According to article PMC7913925, “Design and Evaluation of a Polypeptide That Mimics the Integrin Binding Site for EDA Fibronectin to Block Profibrotic Cell Activity” (International Journal of Molecular Sciences, 2021):
Bridges are numbered along the chain shown (N, C = ends). Where no end group is shown, it is not given here.

Legend:
[1] = system: α-SMA in NIH/3T3 dermal fibroblasts; assay: Immunocytochemistry α-SMA stress fibers; assay type: cell-based, mouse; conditions: 48 h, TGF-β1 10 ng/mL, AF38Pep 10 µg/mL
Protocol: Cells were grown to 40% confluence in 8-well glass chamber slides (Nunc, Thermo Fisher Scientific), prior to growth arrest and treatment. Cells were washed with PBS before fixation in 4% paraformaldehyde for 10 min at room temperature. Next, cells were permeabilized with 0.1% (v/v) Triton X-100 in PBS for 10 min at room temperature. For visualization of ECM, cells were fixed with 100% ice-cold methanol for 8 min at −20 °C. Slides were washed with PBS and blocked with 1% goat serum (TBD Science, Tianjin, China) for 30 min before washing with 0.1% (w/v) BSA in PBS. Subsequently, slides were incubated with monoclonal mouse anti-α-SMA antibody (Sigma-Aldrich, 1:50) diluted in 0.1% BSA-PBS, overnight at 4 °C. After further wash steps, slides were incubated with goat anti-mouse IgG CF-488 secondary antibody (Abcam, 1:1000) in 0.1% BSA-PBS for 1 h at room temperature and under darkness. For F-actin visualization, after fixation and permeabilization; cells were incubated with phalloidin conjugated to FITC (Sigma-Aldrich) in 0.1% BSA-PBS, overnight at 4 °C. Cells were then mounted in DAPI Fluoromount-G (Thermo Fisher Scientific) and imaged using a Zeiss Axio Imager Z1 UV fluorescence microscope (Zeiss, Jena, Germany) and a Leica TCS SP5 laser scanning confocal microscope (Leica Biosystems, Baden-Württemberg, Germany).

EDA-FN–ITGA4 interaction = assay: Co-IP of EDA-FN with ITGA4; assay type: cell-based; conditions: 48 h, Co-IP with anti-ITGA4
Protocol: Total protein was extracted from cells in RIPA lysis buffer containing 1% protease inhibitor cocktail, 1% phenylmethylsulfonyl fluoride, and 1% sodium orthovanadate (Santa Cruz Biotechnology, Santa Cruz, CA, USA). Protein was quantified by Micro BCA Protein Assay Kit (Thermo Fisher Scientific) before 7.5% SDS-PAGE and transfer to nitrocellulose. Membranes were blocked with 5% bovine serum albumin (BSA; Sigma-Aldrich)/0.5% Tween-20 (Sigma-Aldrich)/PBS for 1 h, RT, followed by incubation with primary antibodies diluted in 1% BSA/0.1% Tween-20/PBS, overnight at 4 °C. Primary antibodies were: anti-phosphoY204/Y187 ERK1/2 (1:1000); anti-ERK1/2 (1:1000); anti-phosphoY861 FAK (1:1000); anti-FAK (1:2000). Immunoblotting for anti-GAPDH (1:2500) was used as a protein loading control. Following wash steps, membranes were incubated in goat anti-rabbit IgG H&L secondary antibody (horseradish peroxidase, HRP conjugate, […]) (Abcam; 1:5000 dilution, 1% BSA/0.1% Tween-20/PBS). Detection was performed using Immobilon reagent (Merck Millipore, Burlington, MA, USA) and imaged using a Tanon 5500 Chemiluminescent Imaging System (Tanon, Shanghai, China).
A volume of 25 µg total protein from cell lysate in nondenaturing lysis buffer containing protease inhibitors was immunoprecipitated (IP) using anti-ITGA4 antibodies linked to protein A/G sepharose beads (Abcam). […]

[2] = system: NIH/3T3 cells, total collagen; assay: Hydroxyproline assay, total collagen synthesis; assay type: cell-based, mouse; conditions: 48 h, TGF-β1 + AF38Pep; % of cells that only received TGF-β1
Protocol: Approximately 4 × 10^6 of TGF-β1- and/or AF38Pep-treated NIH/3T3 fibroblast cells were harvested and homogenized in 1:1 conditioned medium to HCl (10N), before incubation at 120 °C for 24 h or until complete sample hydrolyzation. Cell-associated and soluble collagen contents were assessed using the Chondrex Hydroxyproline Assay kit (Chondrex, Redmond, WA, USA) according to the manufacturer’s protocol. In brief, 10 µL of sample, standard or blank control solution was added in duplicate to a 96-well clear-bottomed absorbance plate. Next, 100 µL of 1× chloramine-T solution was added to the wells and incubated at room temperature (RT) for 20 min. After incubation, 100 µL 1× DMAB solution was added to the wells and incubated at 60 °C for 30 min, with mild agitation at 5 min intervals. The plate O.D. values were read at 540 nm and sample values were compared to the values of the standard curve. The total collagen content was determined using the following equation:Collagen level (µg/mL) = Hydroxyproline level (µg/mL) × (100/13.5)

[3] = molecular target: COL-RGD (RGD motif of collagen I) (Homo sapiens, UniProt P02452); assay: Isothermal calorimetry, AF38Pep with COL-RGD; assay type: binding; conditions: 25 °C, pH 7
Protocol: Custom designed peptides were resuspended in sterile-filtered HEPES buffered saline (140 mM NaCl, 1.5 mM Na2HPO4, 50 mM HEPES; pH 7). The larger EDA-FN binding peptide was diluted to 15 µM, degassed and added to the calorimetry chamber well. Three smaller test peptides (fibronectin EDA-peptide, FN-EDA; fibronectin RGD-peptide, FN-RGD and collagen I RGD-peptide, COL-RGD) were diluted to 300 µM, degassed and each was separately loaded into the calorimetry injection needle. The chamber well temperature was kept consistent at 25 °C. Blank buffer was used to replace either the well peptide or the injection needle peptide to account for background heat generation. Isothermal titration calorimetry was performed using a MicroCal iTC200 (Malvern Panalytical, Malvern, UK) and dissociation constant (KD) and association constant (KA) were calculated using the one set of sites model fitting (with number of binding sites assumed to be 1) in MicroCal Origin Software v8.5 (Malvern Panalytical).

## VMPYISTTPAKPCTSENCGNSWYGGFKSKNENKIYFIN (disulfide 13-18 (inferred)) [AF38Pep]
[1]
  α-SMA protein expression (stress fibers): inhibited
EDA-FN–ITGA4 interaction
  EDA-FN–ITGA4 interaction: specifically inhibited EDA-FN–ITGA4 interactions
[2]
  total collagen synthesis relative to TGF-β1 only: approximately 60%
[3]
  ITC interaction (thermogram): not between AF38Pep and FN-RGD or COL-RGD
